In ChEMBL document CHEMBL3286094, “Synthesis and biological evaluation of novel bisbenzimidazoles as Escherichia coli topoisomerase IA inhibitors and potential antibacterial agents” (J Med Chem, 2014):
≈ marks a conversion by molar mass, not a printed value.

How the values were obtained:
Escherichia coli [1] = test: Bactericidal activity against ampicillin/tetracycline-resistant Escherichia coli IP18 isolated from water source by agar plating method
Escherichia coli [2] = test: Bactericidal activity against chloramphenicol/ampicillin/trimethoprim/ciprofloxacin/nalidixic acid-resistant Escherichia coli 59 by agar plating method; assay type: functional
Escherichia coli [3] = test: Bactericidal activity against cefazolinl/ampicillin/piperacillin/cefuroxime/cefepime/cefotaxime/tetracycline/trimethoprim-resistant Escherichia coli KK16 isolated from water source by agar plating method
Escherichia coli [4] = test: Bactericidal activity against ampicillin/ciprofloxacin/gentamicin/tetracycline-resistant Escherichia coli 555 by agar plating method; assay type: functional
Escherichia coli [5] = test: Bactericidal activity against chloroamphenicol/ampicillin/kanamycin/trimethoprim/ciprofloxacin/nalidixic acid-resistant Escherichia coli 85 by agar plating method; assay type: functional
Escherichia coli [6] = test: Bactericidal activity against ampicillin/tetracycline/piperacillin-resistant Escherichia coli WB31 isolated from water source by agar plating method
Escherichia coli [7] = test: Antibacterial activity against cefazolinl/ampicillin/piperacillin/cefuroxime/cefepime/cefotaxime/tetracycline/ciprofloxacin-resistant Escherichia coli NG3 isolated from water source assessed as growth inhibition after 18 to 24 hrs by broth microdilution method
Escherichia coli [8] = test: Bactericidal activity against ampicillin/tetracycline/gentamicin-resistant Escherichia coli 451 by agar plating method; assay type: functional
Escherichia coli [9] = test: Antibacterial activity against ampicillin/tetracycline/gentamicin-resistant Escherichia coli 451 assessed as growth inhibition after 18 to 24 hrs by broth microdilution method; assay type: functional
Escherichia coli [10] = test: Antibacterial activity against tetracycline/trimethoprim-resistant Escherichia coli IST isolated from water source assessed as growth inhibition after 18 to 24 hrs by broth microdilution method
Escherichia coli [11] = test: Antibacterial activity against chloramphenicol/ampicillin/kanamycin/trimethoprim/ciprofloxacin/nalidixic acid-resistant Escherichia coli 132 assessed as growth inhibition after 18 to 24 hrs by broth microdilution method; assay type: functional
Escherichia coli [12] = test: Bactericidal activity against Escherichia coli DH5[alpha] by agar plating method; assay type: functional
Escherichia coli [13] = test: Bactericidal activity against ciprofloxacin-resistant Escherichia coli 72 by agar plating method; assay type: functional
Escherichia coli [14] = test: Antibacterial activity against chloramphenicol/ampicillin/kanamycin/trimethoprim/ciprofloxacin/nalidixic acid-resistant Escherichia coli 151 assessed as growth inhibition after 18 to 24 hrs by broth microdilution method; assay type: functional
Escherichia coli [15] = test: Antibacterial activity against ampicillin/trimethoprim/nalidixic acid-resistant Escherichia coli 118 assessed as growth inhibition after 18 to 24 hrs by broth microdilution method; assay type: functional
Escherichia coli [16] = test: Antibacterial activity against gentamicin/kanamycin/tetracycline/nalidixic acid-resistant Escherichia coli 360 assessed as growth inhibition after 18 to 24 hrs by broth microdilution method; assay type: functional
Escherichia coli [17] = test: Antibacterial activity against ciprofloxacin-resistant Escherichia coli 72 assessed as growth inhibition after 18 to 24 hrs by broth microdilution method; assay type: functional
Escherichia coli [18] = test: Bactericidal activity against ampicillin/kanamycin/trimethoprim/tetracyclin/ciprofloxacin/nalidixic acid-resistant Escherichia coli 81 by agar plating method; assay type: functional
Escherichia coli [19] = test: Antibacterial activity against cefazolinl/ampicillin/piperacillin/cefuroxime/cefepime/cefotaxime/tetracycline/trimethoprim-resistant Escherichia coli KK16 isolated from water source assessed as growth inhibition after 18 to 24 hrs by broth microdilution method
Escherichia coli [20] = test: Antibacterial activity against ampicillin/trimethoprim/piperacillin-resistant Escherichia coli MKNJ isolated from water source assessed as growth inhibition after 18 to 24 hrs by broth microdilution method
Escherichia coli [21] = test: Antibacterial activity against Escherichia coli ATCC 25922 assessed as growth inhibition after 18 to 24 hrs by broth microdilution method; assay type: functional
Escherichia coli [22] = test: Antibacterial activity against multidrug-resistant Escherichia coli IS 54 isolated from water source assessed as growth inhibition after 18 to 24 hrs by broth microdilution method; conditions: IS 54, Water
Escherichia coli [23] = test: Bactericidal activity against chloramphenicol/ampicillin/kanamycin/trimethoprim/ciprofloxacin/nalidixic acid-resistant Escherichia coli 151 by agar plating method; assay type: functional
Escherichia coli [24] = test: Bactericidal activity against ampicillin/trimethoprim/nalidixic acid-resistant Escherichia coli 118 by agar plating method; assay type: functional
Escherichia coli [25] = test: Antibacterial activity against ampicillin/trimethoprim/cefazolinl/piperacillin/cefuroxime/cefoxitine/cefepime/cefotaxime-resistant Escherichia coli KP21 isolated from water source assessed as growth inhibition after 18 to 24 hrs by broth microdilution method
Escherichia coli [26] = test: Antibacterial activity against ampicillin/ciprofloxacin/gentamicin/tetracycline-resistant Escherichia coli 555 assessed as growth inhibition after 18 to 24 hrs by broth microdilution method; assay type: functional
Escherichia coli [27] = test: Antibacterial activity against ampicillin/kanamycin/trimethoprim/tetracyclin/ciprofloxacin/nalidixic acid-resistant Escherichia coli 81 assessed as growth inhibition after 18 to 24 hrs by broth microdilution method; assay type: functional
Escherichia coli [28] = test: Bactericidal activity against ampicillin/chloramphenicol/tetracycline/trimethoprim/ciprofloxacin-resistant Escherichia coli KK45 isolated from water source by agar plating method
Escherichia coli [29] = test: Antibacterial activity against chloramphenicol/ampicillin/trimethoprim/ciprofloxacin/nalidixic acid-resistant Escherichia coli 59 assessed as growth inhibition after 18 to 24 hrs by broth microdilution method; assay type: functional
Escherichia coli [30] = test: Antibacterial activity against ampicillin/tetracycline-resistant Escherichia coli IP18 isolated from water source assessed as growth inhibition after 18 to 24 hrs by broth microdilution method
Escherichia coli [31] = test: Antibacterial activity against ampicillin/chloramphenicol/tetracycline/trimethoprim/ciprofloxacin-resistant Escherichia coli KK45 isolated from water source assessed as growth inhibition after 18 to 24 hrs by broth microdilution method
Escherichia coli [32] = test: Antibacterial activity against ampicillin/tetracycline/piperacillin-resistant Escherichia coli WB31 isolated from water source assessed as growth inhibition after 18 to 24 hrs by broth microdilution method
Escherichia coli [33] = test: Bactericidal activity against chloramphenicol/ampicillin/kanamycin/trimethoprim/ciprofloxacin/nalidixic acid-resistant Escherichia coli 132 by agar plating method; assay type: functional
Escherichia coli [34] = test: Bactericidal activity against cefazolinl/ampicillin/piperacillin/cefuroxime/cefepime/cefotaxime/tetracycline/ciprofloxacin-resistant Escherichia coli NG3 isolated from water source by agar plating method
Escherichia coli [35] = test: Bactericidal activity against Escherichia coli ATCC 25922 by agar plating method; assay type: functional

## COc1ccc(-c2nc3ccc(-c4nc5ccc(N6CCN(c7ncccn7)CC6)cc5[nH]4)cc3[nH]2)cc1OC
Escherichia coli [1]
  MBC: 32 µg/mL (≈ 60.1 µM)
Escherichia coli [2]
  MBC: 32 µg/mL (≈ 60.1 µM)
Escherichia coli [3]
  MBC: 32 µg/mL (≈ 60.1 µM)
Escherichia coli [4]
  MBC: 64 µg/mL (≈ 120 µM)
Escherichia coli [5]
  MBC: 64 µg/mL (≈ 120 µM)
Escherichia coli [6]
  MBC: 32 µg/mL (≈ 60.1 µM)
Escherichia coli [7]
  MIC50: 16 µg/mL (≈ 30 µM)
  MIC90: 30.6 µg/mL (≈ 57.5 µM)
Escherichia coli [8]
  MBC: 32 µg/mL (≈ 60.1 µM)
Escherichia coli [9]
  MIC50: 16 µg/mL (≈ 30 µM)
  MIC90: 28.8 µg/mL (≈ 54.1 µM)
Escherichia coli [10]
  MIC50: 16 µg/mL (≈ 30 µM)
  MIC90: 30.8 µg/mL (≈ 57.8 µM)
Escherichia coli [11]
  MIC50: 64 µg/mL (≈ 120 µM)
  MIC90: 122 µg/mL (≈ 229 µM)
Escherichia coli [12]
  MBC: 4 µg/mL (≈ 7.51 µM)
Escherichia coli [13]
  MBC: 32 µg/mL (≈ 60.1 µM)
Escherichia coli [14]
  MIC50: 16 µg/mL (≈ 30 µM)
  MIC90: 30.4 µg/mL (≈ 57.1 µM)
Escherichia coli [15]
  MIC50: 4 µg/mL (≈ 7.51 µM)
  MIC90: 7.4 µg/mL (≈ 13.9 µM)
Escherichia coli [16]
  MIC50: > 128 µg/mL
Escherichia coli [17]
  MIC50: 16 µg/mL (≈ 30 µM)
  MIC90: 30.1 µg/mL (≈ 56.5 µM)
Escherichia coli [18]
  MBC: 32 µg/mL (≈ 60.1 µM)
Escherichia coli [19]
  MIC50: 16 µg/mL (≈ 30 µM)
  MIC90: 30.4 µg/mL (≈ 57.1 µM)
Escherichia coli [20]
  MIC50: 32 µg/mL (≈ 60.1 µM)
  MIC90: 61.4 µg/mL (≈ 115 µM)
Escherichia coli [21]
  MIC50: 32 µg/mL (≈ 60.1 µM)
  MIC90: 49 µg/mL (≈ 92 µM)
Escherichia coli [22]
  MIC50: 32 µg/mL (≈ 60.1 µM)
  MIC90: 61.6 µg/mL (≈ 116 µM)
Escherichia coli [23]
  MBC: 32 µg/mL (≈ 60.1 µM)
Escherichia coli [24]
  MBC: 8 µg/mL (≈ 15 µM)
Escherichia coli [25]
  MIC50: 32 µg/mL (≈ 60.1 µM)
  MIC90: 60.5 µg/mL (≈ 114 µM)
Escherichia coli [26]
  MIC50: 32 µg/mL (≈ 60.1 µM)
  MIC90: 59.4 µg/mL (≈ 112 µM)
Escherichia coli [27]
  MIC50: 16 µg/mL (≈ 30 µM)
  MIC90: 29.7 µg/mL (≈ 55.8 µM)
Escherichia coli [28]
  MBC: 32 µg/mL (≈ 60.1 µM)
Escherichia coli [29]
  MIC50: 16 µg/mL (≈ 30 µM)
  MIC90: 30.2 µg/mL (≈ 56.7 µM)
Escherichia coli [30]
  MIC50: 16 µg/mL (≈ 30 µM)
  MIC90: 30.8 µg/mL (≈ 57.8 µM)
Escherichia coli [31]
  MIC50: 16 µg/mL (≈ 30 µM)
  MIC90: 30.2 µg/mL (≈ 56.7 µM)
Escherichia coli [32]
  MIC50: 16 µg/mL (≈ 30 µM)
  MIC90: 30.2 µg/mL (≈ 56.7 µM)
Escherichia coli [33]
  MBC: 128 µg/mL (≈ 240 µM)
Escherichia coli [34]
  MBC: 32 µg/mL (≈ 60.1 µM)
Escherichia coli [35]
  MBC: 64 µg/mL (≈ 120 µM)

## CCOc1ccc(-c2nc3ccc(-c4nc5ccc(N6CCN(CC)CC6)cc5[nH]4)cc3[nH]2)cc1
Escherichia coli [1]
  MBC: 8 µg/mL (≈ 17.1 µM)
Escherichia coli [2]
  MBC: 8 µg/mL (≈ 17.1 µM)
Escherichia coli [3]
  MBC: 2 µg/mL (≈ 4.29 µM)
Escherichia coli [4]
  MBC: 16 µg/mL (≈ 34.3 µM)
Escherichia coli [5]
  MBC: 8 µg/mL (≈ 17.1 µM)
Escherichia coli [6]
  MBC: 8 µg/mL (≈ 17.1 µM)
Escherichia coli [7]
  MIC50: 4 µg/mL (≈ 8.57 µM)
  MIC90: 7.7 µg/mL (≈ 16.5 µM)
Escherichia coli [8]
  MBC: 4 µg/mL (≈ 8.57 µM)
Escherichia coli [9]
  MIC50: 2 µg/mL (≈ 4.29 µM)
  MIC90: 3.6 µg/mL (≈ 7.72 µM)
Escherichia coli [10]
  MIC50: 4 µg/mL (≈ 8.57 µM)
  MIC90: 3.7 µg/mL (≈ 7.93 µM)
Escherichia coli [11]
  MIC50: 4 µg/mL (≈ 8.57 µM)
  MIC90: 7.2 µg/mL (≈ 15.4 µM)
Escherichia coli [12]
  MBC: 1 µg/mL (≈ 2.14 µM)
Escherichia coli [13]
  MBC: 8 µg/mL (≈ 17.1 µM)
Escherichia coli [14]
  MIC50: 4 µg/mL (≈ 8.57 µM)
  MIC90: 6.8 µg/mL (≈ 14.6 µM)
Escherichia coli [15]
  MIC50: 1 µg/mL (≈ 2.14 µM)
  MIC90: 1.4 µg/mL (≈ 3 µM)
Escherichia coli [16]
  MIC50: 3 µg/mL (≈ 6.43 µM)
  MIC90: 58.1 µg/mL (≈ 125 µM)
Escherichia coli [17]
  MIC50: 4 µg/mL (≈ 8.57 µM)
  MIC90: 7.2 µg/mL (≈ 15.4 µM)
Escherichia coli [18]
  MBC: 8 µg/mL (≈ 17.1 µM)
Escherichia coli [19]
  MIC50: 1 µg/mL (≈ 2.14 µM)
  MIC90: 1.8 µg/mL (≈ 3.86 µM)
Escherichia coli [20]
  MIC50: 4 µg/mL (≈ 8.57 µM)
  MIC90: 7.6 µg/mL (≈ 16.3 µM)
Escherichia coli [21]
  MIC50: 1.78 µg/mL (≈ 3.81 µM)
  MIC90: 3.1 µg/mL (≈ 6.64 µM)
Escherichia coli [22]
  MIC50: 4 µg/mL (≈ 8.57 µM)
  MIC90: 7.1 µg/mL (≈ 15.2 µM)
Escherichia coli [23]
  MBC: 8 µg/mL (≈ 17.1 µM)
Escherichia coli [24]
  MBC: 2 µg/mL (≈ 4.29 µM)
Escherichia coli [25]
  MIC50: 4 µg/mL (≈ 8.57 µM)
  MIC90: 6.8 µg/mL (≈ 14.6 µM)
Escherichia coli [26]
  MIC50: 8 µg/mL (≈ 17.1 µM)
  MIC90: 13.9 µg/mL (≈ 29.8 µM)
Escherichia coli [27]
  MIC50: 4 µg/mL (≈ 8.57 µM)
  MIC90: 6.5 µg/mL (≈ 13.9 µM)
Escherichia coli [28]
  MBC: 8 µg/mL (≈ 17.1 µM)
Escherichia coli [29]
  MIC50: 4 µg/mL (≈ 8.57 µM)
  MIC90: 7.4 µg/mL (≈ 15.9 µM)
Escherichia coli [30]
  MIC50: 4 µg/mL (≈ 8.57 µM)
  MIC90: 7.6 µg/mL (≈ 16.3 µM)
Escherichia coli [31]
  MIC50: 4 µg/mL (≈ 8.57 µM)
  MIC90: 7.5 µg/mL (≈ 16.1 µM)
Escherichia coli [32]
  MIC50: 4 µg/mL (≈ 8.57 µM)
  MIC90: 7.2 µg/mL (≈ 15.4 µM)
Escherichia coli [33]
  MBC: 8 µg/mL (≈ 17.1 µM)
Escherichia coli [34]
  MBC: 8 µg/mL (≈ 17.1 µM)
Escherichia coli [35]
  MBC: 4 µg/mL (≈ 8.57 µM)
